In patent US11440913B2, “Aminoimidazopyridazines as kinase inhibitors” (BRISTOL-MYERS SQUIBB COMPANY, priority 2017, dated 2022):
Counter-ions that a name gives are not always drawn. Like-named read-outs stand apart in the source and are kept apart here.

Key:
[1] = system: MLKL phosphorylation in HT29-L23 human colorectal adenocarcinoma cells; assay: MLKL Phosphorylation High-Content Assay; assay type: cell-based; settings: 6 h, necroptosis induced with TNFα, SMAC mimetic and Z-VAD, read-out: pMLKL (IC50)
Summary of the method: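 HT29-L23 cells pretreated 30 min at 37 °C with compound (6.25 to 0.106 μM final), then necroptosis induced with TNFα 35 ng/mL, SMAC mimetic 700 nM and Z-VAD 140 nM for 6 h. Fixed cells immunostained for MLKL pS358 and imaged; IC50 and Ymax from 4-parameter logistic fit.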

[2] = biological target: His-GST-TVMV-hRIPK1(1-324) (Homo sapiens (Human), UniProt Q13546); assay: RIPK1 HTRF Binding Assay; settings: HTRF binding, 1 h at rt; read-out: RIPK1 (IC50)
Sequence of His-GST-TVMV-hRIPK1(1-324) (Q13546 1-324): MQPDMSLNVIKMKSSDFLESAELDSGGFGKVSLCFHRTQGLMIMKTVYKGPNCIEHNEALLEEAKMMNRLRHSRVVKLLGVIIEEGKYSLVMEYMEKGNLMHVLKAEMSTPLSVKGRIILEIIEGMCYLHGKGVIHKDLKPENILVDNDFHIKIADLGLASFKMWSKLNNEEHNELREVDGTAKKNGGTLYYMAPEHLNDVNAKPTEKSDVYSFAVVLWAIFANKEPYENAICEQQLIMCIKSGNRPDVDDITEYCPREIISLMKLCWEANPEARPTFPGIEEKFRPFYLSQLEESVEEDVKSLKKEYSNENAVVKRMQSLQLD
Summary of the method: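 HTRF probe-displacement binding: 1 nM His-GST-TVMV-hRIPK1(1-324) (baculovirus construct), 90.6 nM probe, 0.2 nM anti-GST-Tb in 20 mM HEPES, 10 mM MgCl2, 0.015% Brij-35, 4 mM DTT, 0.05 mg/mL BSA. Incubated 1 h at rt; FRET 520/495 nm ratio, inhibition relative to DMSO-only wells.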

| Compound | IC50 ([1]; Homo sapiens) [nM] | IC50 [2] [nM] | IC50 [1] [nM] |
| --- | --- | --- | --- |
| CC(=O)Nc1cn2nc(-c3cc(C(=O)NCc4ncccc4OCC(F)(F)F)c(C)nc3C)ccc2n1 [Example 65, 5-{2-acetamidoimidazo[1,2-b]pyridazin-6-yl}-2,6-dimethyl-N-{[3-(2,2,2-trifluoroethoxy)pyridin-2-yl]methyl}pyridine-3-carboxamide] | 374 | 44 | – |
| [2H]C([2H])(NC(=O)c1cc(-c2ccc3nc(NC(C)=O)cn3n2)c(C)nc1C)c1cc(F)cc(F)c1OC1CCOCC1 [Example 66, N-{[3,5-difluoro-2-(oxan-4-yloxy)phenyl](deutero)methyl}-5-{2-acetamidoimidazo[1,2-b]pyridazin-6-yl}-2,6-dimethylpyridine-3-carboxamide] | 8 | 9 | – |
| [2H]C([2H])([2H])[C@@H](NC(=O)c1cc(-c2ccc3nc(NC(C)=O)cn3n2)c(C)nc1C)c1cc(C(F)(F)F)ccc1F [Example 67, 5-{2-acetamidoimidazo[1,2-b]pyridazin-6-yl}-N-[(1R)-1-[2-fluoro-5-(trifluoromethyl)phenyl](2,2,2-deutero)ethyl]-2,6-dimethylpyridine-3-carboxamide] | 14 | 14 | – |
| CC(=O)Nc1cn2nc(-c3cc(C(=O)NCc4ccccc4OCC(F)(F)F)c(C)nc3C)ccc2n1 [Example 68, 5-{2-acetamidoimidazo[1,2-b]pyridazin-6-yl}-2,6-dimethyl-N-{[2-(2,2,2-trifluoroethoxy)phenyl]methyl}pyridine-3-carboxamide] | 45 | 5 | – |
| CC(=O)Nc1cn2nc(-c3cc(C(=O)N[C@H](C)c4cc(C(F)(F)F)ccc4F)c(C)nc3C)ccc2n1 [Example 69, 5-{2-acetamidoimidazo[1,2-b]pyridazin-6-yl}-N-[(1R)-1-[2-fluoro-5-(trifluoromethyl)phenyl]ethyl]-2,6-dimethylpyridine-3-carboxamide] | 23 | 15 | – |
| [2H]C([2H])([2H])[C@@H](NC(=O)c1cc(-c2ccc3nc(NC(C)=O)cn3n2)c(C)nc1C)c1cc(OC(F)(F)F)ccc1F [Example 70, 5-{2-acetamidoimidazo[1,2-b]pyridazin-6-yl}-N-[(1R)-1-[2-fluoro-5-(trifluoromethoxy)phenyl](2,2,2-deutero)ethyl]-2,6-dimethylpyridine-3-carboxamide] | 9 | 9 | – |
| CC(=O)Nc1cn2nc(-c3cc(C(=O)N[C@H](C)c4cc(OC(F)(F)F)ccc4F)c(C)nc3C)ccc2n1 [Example 71, 5-{2-acetamidoimidazo[1,2-b]pyridazin-6-yl}-N-[(1R)-1-[2-fluoro-5-(trifluoromethoxy)phenyl]ethyl]-2,6-dimethylpyridine-3-carboxamide] | 13 | 5 | – |
| CC(=O)Nc1cn2nc(-c3cc(C(=O)NCc4cc(F)ccc4OCC(F)(F)F)c(C)nc3C)ccc2n1 [Example 72, 5-{2-acetamidoimidazo[1,2-b]pyridazin-6-yl}-N-{[5-fluoro-2-(2,2,2-trifluoroethoxy)phenyl]methyl}-2,6-dimethylpyridine-3-carboxamide, TFA] | 30 | 17 | – |
| CC(=O)Nc1cn2nc(-c3cc(C(=O)NCc4cccc(OCC(F)(F)F)c4)c(C)nc3C)ccc2n1 [Example 73, 5-{2-acetamidoimidazo[1,2-b]pyridazin-6-yl}-2,6-dimethyl-N-{[3-(2,2,2-trifluoroethoxy)phenyl]methyl}pyridine-3-carboxamide] | 82 | 57 | – |
| [2H]C([2H])(NC(=O)c1cc(-c2ccc3nc(NC(C)=O)cn3n2)c(C)nc1C)c1cccc(C(F)(F)F)c1 [Example 74, 5-{2-acetamidoimidazo[1,2-b]pyridazin-6-yl}-2,6-dimethyl-N-{[3-(trifluoro-methyl)phenyl](deutero)methyl}pyridine-3-carboxamide, TFA] | 353 | 63 | – |
| [2H]C([2H])(NC(=O)c1cc(-c2ccc3nc(NC(C)=O)cn3n2)c(C)nc1C)c1cc(C(F)(F)F)ccc1F [Example 75, 5-{2-acetamidoimidazo[1,2-b]pyridazin-6-yl}-N-{[2-fluoro-5-(trifluoromethyl)phenyl](deutero)methyl}-2,6-dimethylpyridine-3-carboxamide] | 32 | 11 | – |
| [2H]C([2H])(NC(=O)c1cc(-c2ccc3nc(NC(C)=O)cn3n2)c(C)nc1C)c1cc(OC(F)(F)F)ccc1F [Example 76, 5-{2-acetamidoimidazo[1,2-b]pyridazin-6-yl}-N-{[2-fluoro-5-(trifluorometh-oxy)phenyl](deutero)methyl}-2,6-dimethylpyridine-3-carboxamide] | 8 | 3 | – |
| CC(=O)Nc1cn2nc(-c3cc(C(=O)NCc4cc(F)cc(F)c4OC4COC4)c(C)nc3C)ccc2n1 [Example 77, N-{[3,5-difluoro-2-(oxetan-3-yloxy)phenyl]methyl}-5-{2-acetamidoimidazo[1,2-b]pyridazin-6-yl}-2,6-dimethylpyridine-3-carboxamide] | 265 | 17 | – |
| CC(=O)Nc1cn2nc(-c3cc(C(=O)NCc4cc(F)cc(F)c4OC4CCOCC4)c(C)nc3C)ccc2n1 [Example 78, N-{[3,5-difluoro-2-(oxan-4-yloxy)phenyl]methyl}-5-{2-acetamidoimidazo[1,2-b]pyridazin-6-yl}-2,6-dimethylpyridine-3-carboxamide] | 21 | 16 | – |
| CC(=O)Nc1cn2nc(-c3cc(C(=O)NCc4cc(C(F)(F)F)ccc4F)c(C)nc3C)ccc2n1 [Example 80, 5-{2-acetamidoimidazo[1,2-b]pyridazin-6-yl}-N-{[2-fluoro-5-(trifluoromethyl)phenyl]methyl}-2,6-dimethylpyridine-3-carboxamide] | 15 | 14 | – |
| CC(=O)Nc1cn2nc(-c3cc(C(=O)NCc4cc(OC(F)(F)F)ccc4F)c(C)nc3C)ccc2n1 [Example 81, 5-{2-acetamidoimidazo[1,2-b]pyridazin-6-yl}-N-{[2-fluoro-5-(trifluoromethoxy)phenyl]methyl}-2,6-dimethylpyridine-3-carboxamide] | 2 | 5 | – |
| CC(=O)Nc1cn2nc(-c3cc(C(=O)NCC[C@H](O)c4ccc(Cl)cc4)c(C)nc3C)ccc2n1 [Example 82, N-[(3S)-3-(4-chlorophenyl)-3-hydroxypropyl]-5-{2-acetamidoimidazo[1,2-b]pyridazin-6-yl}-2,6-dimethylpyridine-3-carboxamide] | 18 | 21 | – |
| CC(=O)Nc1cn2nc(-c3cc(C(=O)NCc4ccccc4OCC4CC4)c(C)nc3C)ccc2n1 [Example 83, N-{[2-(cyclopropylmethoxy)phenyl]methyl}-5-{2-acetamidoimidazo[1,2-b]pyridazin-6-yl}-2,6-dimethylpyridine-3-carboxamide] | – | 5 | 7 |
| CC(=O)Nc1cn2nc(-c3cc(C(=O)NCc4cccnc4OCC4CCCC4)c(C)nc3C)ccc2n1 [Example 84, N-{[2-(cyclopentylmethoxy)pyridin-3-yl]methyl}-5-{2-acetamidoimidazo[1,2-b]pyridazin-6-yl}-2,6-dimethylpyridine-3-carboxamide] | 26 | 19 | – |
| CC(=O)Nc1cn2nc(-c3cc(C(=O)NCc4ccccc4OCC4CCCC4)c(C)nc3C)ccc2n1 [Example 85, N-{[2-(cyclopentylmethoxy)phenyl]methyl}-5-{2-acetamidoimidazo[1,2-b]pyridazin-6-yl}-2,6-dimethylpyridine-3-carboxamide] | 12 | 4 | – |
| CC(=O)Nc1cn2nc(-c3cc(C(=O)NCc4cc(F)cc(F)c4OCC4CC4)c(C)nc3C)ccc2n1 [Example 87, N-{[2-(cyclopropylmethoxy)-3,5-difluorophenyl]methyl}-5-{2-acetamidoimidazo[1,2-b]pyridazin-6-yl}-2,6-dimethylpyridine-3-carboxamide] | 3 | 3 | – |
| CC(=O)Nc1cn2nc(-c3cc(C(=O)NCc4cccc(OC(F)(F)F)c4)c(C)nc3C)ccc2n1 [Example 88, 5-{2-acetamidoimidazo[1,2-b]pyridazin-6-yl}-2,6-dimethyl-N-{[3-(trifluorometh-oxy)phenyl]methyl}pyridine-3-carboxamide] | 42 | 25 | – |
| CC(=O)Nc1cn2nc(-c3cc(C(=O)NCc4ccccc4OC(F)(F)F)c(C)nc3C)ccc2n1 [Example 89, 5-{2-acetamidoimidazo[1,2-b]pyridazin-6-yl}-2,6-dimethyl-N-{[2-(trifluoro-methoxy)phenyl]methyl}pyridine-3-carboxamide] | 88 | 38 | – |
| CC(=O)Nc1cn2nc(-c3cc(C(=O)NCc4cc(F)cc(F)c4OCC4CCCC4)c(C)nc3C)ccc2n1 [Example 90, N-{[2-(cyclopentylmethoxy)-3,5-difluorophenyl]methyl}-5-{2-acetamidoimidazo[1,2-b]pyridazin-6-yl}-2,6-dimethylpyridine-3-carboxamide] | 3 | 5 | – |
| Cc1nc(C)c(-c2ccc3nc(NC(=O)CO)cn3n2)cc1C(=O)NCc1cc(F)cc(F)c1O[C@H]1CCOC1 [Example 91, N-({3,5-difluoro-2-[(3S)-oxolan-3-yloxy]phenyl}methyl)-5-[2-(2-hydroxy-acetamido)imidazo[1,2-b]pyridazin-6-yl]-2,6-dimethylpyridine-3-carboxamide, TFA] | 442 | 61 | – |
